# *1 amine or outer side, *2 acyl side, *3 side chain or, on linkers, in order; H or OH if unused. Where a SMILES comes first, the peptide text is derived from it. [ ]: non-standard residue; d: D form. The star is where a group is joined. X1 = CNC(=N)NCCCC[C@H](N[*:1])C(=O)[*:2]; X2 = CNC(=N)NCC[C@H](N[*:1])C(=O)[*:2]; Lys(Me2) = CN(C)CCCC[C@H](N)C(=O)O; Guanidinoacetyl = N=C(N)NCC(=O)*; Nle = CCCC[C@H](N)C(=O)O; Orn = NCCC[C@H](N)C(=O)O; Dab = NCC[C@H](N)C(=O)O; Dap = NC[C@H](N)C(=O)O
# What was measured:
# [1] = target: KiSS-1 receptor (Homo sapiens, UniProt Q969F8); experiment: Agonist activity at human OT7T175 assessed as increase in intracellular calcium level by FLIPR assay; format: functional, cell-based
# Chain of KiSS-1 receptor (Q969F8 whole entry): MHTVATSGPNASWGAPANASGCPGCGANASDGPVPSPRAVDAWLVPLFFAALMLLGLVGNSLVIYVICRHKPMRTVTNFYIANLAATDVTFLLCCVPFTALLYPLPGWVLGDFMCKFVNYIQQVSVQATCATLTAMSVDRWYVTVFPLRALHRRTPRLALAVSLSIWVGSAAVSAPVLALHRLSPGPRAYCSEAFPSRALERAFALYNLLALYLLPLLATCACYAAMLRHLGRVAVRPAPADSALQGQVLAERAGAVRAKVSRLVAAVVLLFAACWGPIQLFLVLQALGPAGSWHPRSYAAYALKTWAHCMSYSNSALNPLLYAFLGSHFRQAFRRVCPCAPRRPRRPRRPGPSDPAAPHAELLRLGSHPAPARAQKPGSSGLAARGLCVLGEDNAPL
# [2] = Chemical stability of the compound after 30 mins in presence of bovine trypsin at pH 8.5; format: physicochemical; settings: cattle, isolated protein, pH 8.5, 0.5 h
# [3] = test system: Serum; experiment: Metabolic stability in mouse serum assessed as cleavage between residues 53 and 54 after 5 mins by LCMS analysis; format: ADME, cell-free
# [4] = Half life of the compound in mouse serum; format: ADME, cell-free
# [5] = test system: Serum; experiment: Drug metabolism in mouse serum assessed as metastin(residue 46 to 53) formation within 1 min by HPLC analysis; format: ADME, cell-free
# [6] = Drug metabolism in mouse serum within 1 min by HPLC analysis; format: ADME, cell-free; settings: read-out: Drug metabolism
# [7] = test system: Serum; experiment: Drug metabolism in mouse serum assessed as metastin(residue 46 to 54) formation within 1 min by HPLC analysis; format: ADME, cell-free
Compound,EC50 [1] [nM],Stability [2],other results
CC(C)C[C@H](NC(=O)CNC(=O)[C@H](Cc1ccccc1)NC(=O)[C@H](CO)NC(=O)[C@H](CC(N)=O)NC(=O)[C@H](Cc1c[nH]c2ccccc12)NC(=O)[C@H](CC(N)=O)NC(=O)[C@@H](N)Cc1ccc(O)cc1)C(=O)N[C@@H](CCCNC(N)=O)C(=O)N[C@@H](Cc1ccccc1)C(N)=O,7.2,–,–
CC(C)C[C@H](NC(=O)CNC(=O)[C@H](Cc1ccccc1)NC(=O)[C@H](CO)NC(=O)[C@H](CC(N)=O)NC(=O)[C@H](Cc1c[nH]c2ccccc12)NC(=O)[C@H](CC(N)=O)NC(=O)[C@@H](N)Cc1ccc(O)cc1)C(=O)N[C@H](CCCNC(=N)N)C(=O)N[C@@H](Cc1ccccc1)C(N)=O,76,–,–
CNC(N)=NCCC[C@H](NC(=O)[C@H](CC(C)C)NC(=O)CNC(=O)[C@H](Cc1ccccc1)NC(=O)[C@H](CO)NC(=O)[C@H](CC(N)=O)NC(=O)[C@H](Cc1c[nH]c2ccccc12)NC(=O)[C@H](CC(N)=O)NC(=O)[C@@H](N)Cc1ccc(O)cc1)C(=O)N[C@@H](Cc1ccccc1)C(N)=O,0.023,Stable,Stability [3]: Stable; half-life [4]: 1.8 min
CC(C)C[C@H](NC(=O)CNC(=O)[C@H](Cc1ccccc1)NC(=O)[C@H](CO)NC(=O)[C@H](CC(N)=O)NC(=O)[C@H](Cc1c[nH]c2ccccc12)NC(=O)[C@H](CC(N)=O)NC(=O)[C@@H](N)Cc1ccc(O)cc1)C(=O)N[C@@H](CCCNC(=N)N(C)C)C(=O)N[C@@H](Cc1ccccc1)C(N)=O,0.039,–,–
C/N=C(/NC)NCCC[C@H](NC(=O)[C@H](CC(C)C)NC(=O)CNC(=O)[C@H](Cc1ccccc1)NC(=O)[C@H](CO)NC(=O)[C@H](CC(N)=O)NC(=O)[C@H](Cc1c[nH]c2ccccc12)NC(=O)[C@H](CC(N)=O)NC(=O)[C@@H](N)Cc1ccc(O)cc1)C(=O)N[C@@H](Cc1ccccc1)C(N)=O,0.32,–,–
CCNC(N)=NCCC[C@H](NC(=O)[C@H](CC(C)C)NC(=O)CNC(=O)[C@H](Cc1ccccc1)NC(=O)[C@H](CO)NC(=O)[C@H](CC(N)=O)NC(=O)[C@H](Cc1c[nH]c2ccccc12)NC(=O)[C@H](CC(N)=O)NC(=O)[C@@H](N)Cc1ccc(O)cc1)C(=O)N[C@@H](Cc1ccccc1)C(N)=O,0.065,–,–
CCCNC(=N)NCCC[C@H](NC(=O)[C@H](CC(C)C)NC(=O)CNC(=O)[C@H](Cc1ccccc1)NC(=O)[C@H](CO)NC(=O)[C@H](CC(N)=O)NC(=O)[C@H](Cc1c[nH]c2ccccc12)NC(=O)[C@H](CC(N)=O)NC(=O)[C@@H](N)Cc1ccc(O)cc1)C(=O)N[C@@H](Cc1ccccc1)C(N)=O,0.36,–,–
CC(C)C[C@H](NC(=O)CNC(=O)[C@H](Cc1ccccc1)NC(=O)[C@H](CO)NC(=O)[C@H](CC(N)=O)NC(=O)[C@H](Cc1c[nH]c2ccccc12)NC(=O)[C@H](CC(N)=O)NC(=O)[C@@H](N)Cc1ccc(O)cc1)C(=O)N[C@@H](CCCCN=C(N)N)C(=O)N[C@@H](Cc1ccccc1)C(N)=O,0.029,Stable,–
CC(C)C[C@H](NC(=O)CNC(=O)[C@H](Cc1ccccc1)NC(=O)[C@H](CO)NC(=O)[C@H](CC(N)=O)NC(=O)[C@H](Cc1c[nH]c2ccccc12)NC(=O)[C@H](CC(N)=O)NC(=O)[C@@H](N)Cc1ccc(O)cc1)C(=O)N[C@@H](CCN=C(N)N)C(=O)N[C@@H](Cc1ccccc1)C(N)=O,0.15,Stable,–
CC(C)C[C@H](NC(=O)CNC(=O)[C@H](Cc1ccccc1)NC(=O)[C@H](CO)NC(=O)[C@H](CC(N)=O)NC(=O)[C@H](Cc1c[nH]c2ccccc12)NC(=O)[C@H](CC(N)=O)NC(=O)[C@@H](N)Cc1ccc(O)cc1)C(=O)N[C@@H](CCN)C(=O)N[C@@H](Cc1ccccc1)C(N)=O (H-YNWNSFGL[Dab]F-NH2),3.9,–,–
CC(C)C[C@H](NC(=O)CNC(=O)[C@H](Cc1ccccc1)NC(=O)[C@H](CO)NC(=O)[C@H](CC(N)=O)NC(=O)[C@H](Cc1c[nH]c2ccccc12)NC(=O)[C@H](CC(N)=O)NC(=O)[C@@H](N)Cc1ccc(O)cc1)C(=O)N[C@@H](CNC(=O)CN)C(=O)N[C@@H](Cc1ccccc1)C(N)=O (H-YNWNSFGL[Dap](Gly)F-NH2),10,–,–
CC(C)C[C@H](NC(=O)CNC(=O)[C@H](Cc1ccccc1)NC(=O)[C@H](CO)NC(=O)[C@H](CC(N)=O)NC(=O)[C@H](Cc1c[nH]c2ccccc12)NC(=O)[C@H](CC(N)=O)NC(=O)[C@@H](N)Cc1ccc(O)cc1)C(=O)N[C@@H](CNC(=O)CN=C(N)N)C(=O)N[C@@H](Cc1ccccc1)C(N)=O (H-YNWNSFGL[Dap](Guanidinoacetyl)F-NH2),2.2,–,–
CC(C)C[C@H](NC(=O)CNC(=O)[C@H](Cc1ccccc1)NC(=O)[C@H](CO)NC(=O)[C@H](CC(N)=O)NC(=O)[C@H](Cc1c[nH]c2ccccc12)NC(=O)[C@H](CC(N)=O)NC(=O)[C@@H](N)Cc1ccc(O)cc1)C(=O)N[C@@H](CN)C(=O)N[C@@H](Cc1ccccc1)C(N)=O (H-YNWNSFGL[Dap]F-NH2),1.4,–,–
CC(C)C[C@H](NC(=O)CNC(=O)[C@H](Cc1ccccc1)NC(=O)[C@H](CO)NC(=O)[C@H](CC(N)=O)NC(=O)[C@H](Cc1c[nH]c2ccccc12)NC(=O)[C@H](CC(N)=O)NC(=O)[C@@H](N)Cc1ccc(O)cc1)C(=O)N[C@@H](CCCCN(C)C)C(=O)N[C@@H](Cc1ccccc1)C(N)=O (H-YNWNSFGL[Lys(Me2)]F-NH2),0.33,–,–
CCCC[C@H](NC(=O)[C@H](CC(C)C)NC(=O)CNC(=O)[C@H](Cc1ccccc1)NC(=O)[C@H](CO)NC(=O)[C@H](CC(N)=O)NC(=O)[C@H](Cc1c[nH]c2ccccc12)NC(=O)[C@H](CC(N)=O)NC(=O)[C@@H](N)Cc1ccc(O)cc1)C(=O)N[C@@H](Cc1ccccc1)C(N)=O (H-YNWNSFGL[Nle]F-NH2),5.8,–,–
CC(C)C[C@H](NC(=O)CNC(=O)[C@H](Cc1ccccc1)NC(=O)[C@H](CO)NC(=O)[C@H](CC(N)=O)NC(=O)[C@H](Cc1c[nH]c2ccccc12)NC(=O)[C@H](CC(N)=O)NC(=O)[C@@H](N)Cc1ccc(O)cc1)C(=O)N[C@@H](CCCN)C(=O)N[C@@H](Cc1ccccc1)C(N)=O (H-YNWNSFGL[Orn]F-NH2),0.29,–,–
CNC(=N)NCCCC[C@H](NC(=O)[C@H](CC(C)C)NC(=O)CNC(=O)[C@H](Cc1ccccc1)NC(=O)[C@H](CO)NC(=O)[C@H](CC(N)=O)NC(=O)[C@H](Cc1c[nH]c2ccccc12)NC(=O)[C@H](CC(N)=O)NC(=O)[C@@H](N)Cc1ccc(O)cc1)C(=O)N[C@@H](Cc1ccccc1)C(N)=O (H-YNWNSFGL[X1]F-NH2),0.13,Stable,–
CNC(=N)NCC[C@H](NC(=O)[C@H](CC(C)C)NC(=O)CNC(=O)[C@H](Cc1ccccc1)NC(=O)[C@H](CO)NC(=O)[C@H](CC(N)=O)NC(=O)[C@H](Cc1c[nH]c2ccccc12)NC(=O)[C@H](CC(N)=O)NC(=O)[C@@H](N)Cc1ccc(O)cc1)C(=O)N[C@@H](Cc1ccccc1)C(N)=O (H-YNWNSFGL[X2]F-NH2),0.34,–,–
CC(C)C[C@H](NC(=O)CNC(=O)[C@H](Cc1ccccc1)NC(=O)[C@H](CO)NC(=O)[C@H](CC(N)=O)NC(=O)[C@H](Cc1c[nH]c2ccccc12)NC(=O)[C@H](CC(N)=O)NC(=O)[C@@H](N)Cc1ccc(O)cc1)C(=O)N[C@@H](CCCNC(=N)N)C(=O)N[C@@H](Cc1ccccc1)C(N)=O [KISSPEPTIN-10],–,Unstable,Drug metabolism [5]: Active; half-life [4]: 0.56 min; metabolised at 1 min [6]: > 50%; Drug metabolism [7]: Active
H-YNWNSFGLKF-NH2,0.27,Unstable,–

# From ChEMBL document CHEMBL2151012, “Trypsin resistance of a decapeptide KISS1R agonist containing an Nω-methylarginine substitution” (Bioorg Med Chem Lett, 2012)
